Test results reported in patent publication US11717508B2, “Compounds, compositions, and methods for inhibiting bacterial growth” (priority 2016, dated 2023).
“And” between values parts separate entries of the source, which are not always exact repeats. Equal entries are not always repeated. Where two headings read alike, the source gives them in different places.

Key:
CDC1551(ΔdosR) mutant = format: cell-based; conditions: for log2 Fold change: DosR mutant, HC101A vs DMSO; for Counts per million (CPM): DosR mutant treated with HC101A, replicates 1, 2
[1] = tested on: DosR-regulated genes (dosR, hspX and tgs1); format: cell-based, Mycobacterium tuberculosis

With `C[C@@H]1CC[C@H]2[C@@H](C)C(=O)O[C@@H]3O[C@]4(C)CC[C@@H]1[C@]32OO4` [HC101A, artemisinin, reference compound] the “log2 Fold change” value (CDC1551(ΔdosR) mutant; gene MT1736) was −1.039, the “Counts per million (CPM)” value (CDC1551(ΔdosR) mutant; gene MT1775) was 17.8 CPM and 12.82 CPM and the “log2 Fold change” value (CDC1551(ΔdosR) mutant; gene MT1775) was −1.012. The “log2 Fold change” value (CDC1551(ΔdosR) mutant; gene MT1836 Rv1787 PPE) was 1.847, the “Counts per million (CPM)” value (CDC1551(ΔdosR) mutant; gene MT1854 Rv1804c) was 12.83 CPM and 20.46 CPM and the “log2 Fold change” value (CDC1551(ΔdosR) mutant; gene MT1854 Rv1804c) was −1.101. For the same molecule, the “log2 Fold change” value (CDC1551(ΔdosR) mutant; gene MT1893 Rv1845c) was 1.059, the “Counts per million (CPM)” value (CDC1551(ΔdosR) mutant; gene MT1922 Rv1873) was 11.35 CPM and 17.72 CPM and the “log2 Fold change” value (CDC1551(ΔdosR) mutant; gene MT1922 Rv1873) was −1.314. For the same molecule, the “Counts per million (CPM)” value (CDC1551(ΔdosR) mutant; gene MT1969 Rv1918c PPE) was 90.23 CPM and 98.57 CPM, the “log2 Fold change” value (CDC1551(ΔdosR) mutant; gene MT1969 Rv1918c PPE) was −1.009 and the “Counts per million (CPM)” value (CDC1551(ΔdosR) mutant; gene MT2040 Rv1986) was 79.07 CPM and 31.42 CPM. The “log2 Fold change” value (CDC1551(ΔdosR) mutant; gene MT2040 Rv1986) was −2.384, the “log2 Fold change” value (CDC1551(ΔdosR) mutant; gene MT2126 Rv2066 cobl) was 1.049 and the “Counts per million (CPM)” value (CDC1551(ΔdosR) mutant; gene MT2166 Rv2107 PE) was 25.86 CPM and 35.24 CPM. The “log2 Fold change” value (CDC1551(ΔdosR) mutant; gene MT2166 Rv2107 PE) was −1.899, the “Counts per million (CPM)” value (CDC1551(ΔdosR) mutant; gene MT2167 Rv2108 PPE) was 31.6 CPM and 38.76 CPM and the “log2 Fold change” value (CDC1551(ΔdosR) mutant; gene MT2167 Rv2108 PPE) was −1.672. The “Counts per million (CPM)” value (CDC1551(ΔdosR) mutant; gene MT2168) was 9.545 CPM and 9.201 CPM, the “log2 Fold change” value (CDC1551(ΔdosR) mutant; gene MT2168) was −1.358 and the “log2 Fold change” value (CDC1551(ΔdosR) mutant; gene MT2264 Rv2208 cobS) was 1.264. For the same molecule, the “Counts per million (CPM)” value (CDC1551(ΔdosR) mutant; gene MT2278 Rv2220 glnA1) was 635.9 CPM and 701.1 CPM, the “log2 Fold change” value (CDC1551(ΔdosR) mutant; gene MT2278 Rv2220 glnA1) was −1.188 and the “Counts per million (CPM)” value (CDC1551(ΔdosR) mutant; gene MT2284 Rv2225 panB) was 197.5 CPM and 213.5 CPM. The “log2 Fold change” value (CDC1551(ΔdosR) mutant; gene MT2284 Rv2225 panB) was −1.005, the “Counts per million (CPM)” value (CDC1551(ΔdosR) mutant; gene MT2304 Rv2244 acpM) was 831.8 CPM and 1,835.61 CPM and the “log2 Fold change” value (CDC1551(ΔdosR) mutant; gene MT2304 Rv2244 acpM) was −1.454. The “Counts per million (CPM)” value (CDC1551(ΔdosR) mutant; gene MT2305 Rv2245 kasA) was 1,175.19 CPM and 2,060.94 CPM, the “log2 Fold change” value (CDC1551(ΔdosR) mutant; gene MT2305 Rv2245 kasA) was −1.196 and the “Counts per million (CPM)” value (CDC1551(ΔdosR) mutant; gene MT2306) was 704.1 CPM and 1,234.02 CPM. For the same molecule, the “log2 Fold change” value (CDC1551(ΔdosR) mutant; gene MT2306) was −1.017, the “Counts per million (CPM)” value (CDC1551(ΔdosR) mutant; gene MT2391 Rv2329c narK1) was 72.04 CPM and 74 CPM and the “log2 Fold change” value (CDC1551(ΔdosR) mutant; gene MT2391 Rv2329c narK1) was −1.058. The “Counts per million (CPM)” value (CDC1551(ΔdosR) mutant; gene MT2417) was 8.836 CPM and 16.05 CPM, the “log2 Fold change” value (CDC1551(ΔdosR) mutant; gene MT2417) was −1.114 and the “Counts per million (CPM)” value (CDC1551(ΔdosR) mutant; gene MT2503 Rv2428 ahpC) was 372.7 CPM and 897.9 CPM. For the same molecule, the “log2 Fold change” value (CDC1551(ΔdosR) mutant; gene MT2503 Rv2428 ahpC) was −1.173, the “Counts per million (CPM)” value (CDC1551(ΔdosR) mutant; gene MT2504 Rv2429 ahpD) was 163.9 CPM and 315.8 CPM and the “Counts per million (CPM)” value (CDC1551(ΔdosR) mutant; gene MT2506) was 236.2 CPM and 203 CPM. The “log2 Fold change” value (CDC1551(ΔdosR) mutant; gene MT2506) was −1.06, the “Counts per million (CPM)” value (CDC1551(ΔdosR) mutant; gene MT2526 Rv2450c) was 892.4 CPM and 239.7 CPM and the “log2 Fold change” value (CDC1551(ΔdosR) mutant; gene MT2526 Rv2450c) was −1.032. The “log2 Fold change” value (CDC1551(ΔdosR) mutant; gene MT2615 Rv2540c aroF) was 1.402, the “log2 Fold change” value (CDC1551(ΔdosR) mutant; gene MT2631) was 1.063 and the “Counts per million (CPM)” value (CDC1551(ΔdosR) mutant; gene MT2698 Rv2623) was 41.08 CPM and 44.83 CPM. For the same molecule, the “log2 Fold change” value (CDC1551(ΔdosR) mutant; gene MT2698 Rv2623) was −1.072, the “Counts per million (CPM)” value (CDC1551(ΔdosR) mutant; gene MT2778 Rv2705c) was 45.21 CPM and 56.67 CPM and the “log2 Fold change” value (CDC1551(ΔdosR) mutant; gene MT2778 Rv2705c) was −1.01. For the same molecule, the “Counts per million (CPM)” value (CDC1551(ΔdosR) mutant; gene MT2849 Rv2779c) was 26.89 CPM and 12.92 CPM, the “log2 Fold change” value (CDC1551(ΔdosR) mutant; gene MT2849 Rv2779c) was −1.668 and the “Counts per million (CPM)” value (CDC1551(ΔdosR) mutant; gene MT2850 Rv2780 ald) was 1,263.03 CPM and 369.1 CPM. The “log2 Fold change” value (CDC1551(ΔdosR) mutant; gene MT2850 Rv2780 ald) was −1.861, the “log2 Fold change” value (CDC1551(ΔdosR) mutant; gene MT2863 Rv2794c) was 1.021 and the “Counts per million (CPM)” value (CDC1551(ΔdosR) mutant; gene MT3065 Rv2987c leuD) was 140.2 CPM and 20.16 CPM. The “log2 Fold change” value (CDC1551(ΔdosR) mutant; gene MT3065 Rv2987c leuD) was −1.094, the “log2 Fold change” value (CDC1551(ΔdosR) mutant; gene MT3110 Rv3026c) was 1.612 and the “Counts per million (CPM)” value (CDC1551(ΔdosR) mutant; gene MT3118 Rv3033) was 22.06 CPM and 33.57 CPM. For the same molecule, the “Counts per million (CPM)” value (CDC1551(ΔdosR) mutant; gene MT3132) was 35.54 CPM and 21.04 CPM, the “log2 Fold change” value (CDC1551(ΔdosR) mutant; gene MT3132) was −1.912 and the “log2 Fold change” value (CDC1551(ΔdosR) mutant; gene MT3133 Rv3048c nrdG) was −2.008. The “log2 Fold change” value (CDC1551(ΔdosR) mutant; gene MT3134 Rv3049c) was −2.181, the “log2 Fold change” value (CDC1551(ΔdosR) mutant; gene MT3178 Rv3094c) was −1.319 and the “log2 Fold change” value (CDC1551(ΔdosR) mutant; gene MT3293 Rv3199c) was 1.039. The “log2 Fold change” value (CDC1551(ΔdosR) mutant; gene MT3327 Rv3230c) was 1.145, the “log2 Fold change” value (CDC1551(ΔdosR) mutant; gene MT3441 Rv3338) was −1.641 and the “log2 Fold change” value (CDC1551(ΔdosR) mutant; gene MT3481 Rv3371) was −1.101. The “log2 Fold change” value (CDC1551(ΔdosR) mutant; gene MT3498 Rv3391 acrA1) was −1.036, the “log2 Fold change” value (CDC1551(ΔdosR) mutant; gene MT3581 Rv3477 PE) was −1.558 and the “log2 Fold change” value (CDC1551(ΔdosR) mutant; gene MT3591 Rv3487c lipF) was −1.301. For the same molecule, the “log2 Fold change” value (CDC1551(ΔdosR) mutant; gene MT3947 Rv3839) was −1.144, the “log2 Fold change” value (CDC1551(ΔdosR) mutant; gene MT3963 Rv3848) was −1.017 and the “log2 Fold change” value (CDC1551(ΔdosR) mutant; gene MT3969 Rv3854c) was −2.018. For the same molecule, the “log2 Fold change” value (CDC1551(ΔdosR) mutant; gene MT3970 Rv3855) was −1.5, the “log2 Fold change” value (CDC1551(ΔdosR) mutant; gene MT3976 Rv3862c) was −1.387 and the “log2 Fold change” value (CDC1551(ΔdosR) mutant; gene MT3978 Rv3864) was −1.324. For the same molecule, the “log2 Fold change” value (CDC1551(ΔdosR) mutant; gene MT3988 Rv3874) was −1.066, the “log2 Fold change” value (CDC1551(ΔdosR) mutant; gene MT3989 Rv3875 esat6) was −1.043 and the “resistance to artemisinin of DosT (G115L) vs WT DosT or DosT (G85L)” value [1] was roughly 5 fold.
